# Source: paper PMC12128024, “Copper(II) Cyclopeptides with High ROS-Mediated Cytotoxicity” (Bioconjugate Chemistry, 2025)
# *1 amine or outer side, *2 acyl side, *3 side chain or, on linkers, in order; H or OH if unused. Where a SMILES comes first, the peptide text is derived from it. [ ]: non-standard residue; d: D form. X1 = O=C(c1ccc(-c2ccc(N[*:1])cn2)nc1)[*:2]; βAla = NCCC(=O)O
# Columns and labels:
# [1] = system: NCI/ADR-RES (doxorubicin resistant ovarian carcinoma); conditions: 48 h
# Excerpt: IC50 is the concentration at which 50% growth inhibition is obtained and E max represents the efficacy of the compound at its maximum concentration, expressed as the maximum % cell inhibition achieved by the compound (see Section S6 and Figure S8 of the Supporting Information).
# General method: cell lines and grown conditions
# Non-small lung carcinoma NCI-H460, human colon carcinoma HCT-116, human glioma SF-268
# and doxorubicin-resistance human mamma carcinoma NCI/ADR-RES cell lines, as well as
# Eagle’s Minimal Essential Medium (EMEM) and RPMI1640 were purchased from the American Tissue Culture Collection (ATCC). Frozen cells were thawed in a 75 cm2 cell culture flask in RPMI
# supplemented with 2 mM L-glutamine and 10% FBS and maintained at 37 °C in a 5% CO2
# The inhibition of cell proliferation induced by the samples [1/Cu(II), 1 eq. cyclopeptide 1/3 eq. of
# Cu(II); 2/Cu(II), 1 eq. cyclopeptide 2/5 eq. of Cu(II)]‚ was carried out by using MTT method for
# HCT-116, NCI/ADR-RES and NCI-H460 cell lines. SF-268 cell growth inhibition induced by the
# samples was assessed using a system based on crystal violet cell staining and subsequent
# acetylation. Cells were seeded in a 96-well microplate (5000 cells/well for HCT-116, 10000
# cells/well for SF-268 and 15000 cells/well for NCI/ADR-RES and NCI-H460 cell lines) in 100 μl
# of growth medium and maintained at 37 °C for 24 h.
# Then growth medium was replaced by fresh medium containing different concentrations of the
# samples to be assayed and maintained at 37 °C in a 5% CO2 atmosphere for 48 h. After this
# time, 10 μL MTT (5 mg/ml in PBS) were added to each well and maintained for 4 h at 37 °C in a
# 5% CO2 atmosphere. Then 100 μL of 10% SDS in 0.01 M HCl were added to each well an
# incubated for 12-14 h under the same experimental conditions. Absorbance due to formation
# was detected in a Tecan infinity M1000 Pro reader using a wavelength of 595 nm. All assays
# were performed with triplicate points.
# b) Crystal violet cell staining
# The samples dissolved in water were added, maintaining the same proportion of water in each
# well (10%). After 72 h (at 37°C and in an atmosphere of 5% CO 2/95% air), the cells were fixed to
# the plate with 10 μL of 11% glutaraldehyde solution, kept under agitation at room temperature,
# for 15 minutes. Once fixed, the medium was removed and the cells were washed 3-4 times with
# distilled water, followed by staining of the cells with 100 μL of a 0.1% crystal violet solution. This
# solution was prepared by diluting 0.1g of crystal violet in 100 mL of buffer composed of 200 mM
# phosphoric acid, 200 mM formic acid and 200 mM 2-(N-morpholino)-ethane sulphonic acid
# (MES) at pH 6. The plate was kept shaking at room temperature for 15 minutes. The dye was
# removed, washed 3-4 times with distilled water and dried. 100 μL of 10% acetic acid was then
# added and kept under agitation for 15 minutes, at room temperature, so that the staining was
# homogeneous in all wells. Finally, an absorbance reading of the plates was performed at a
# wavelength of 595 nm (Tecan M1000 Infinite Pro). The assay was performed with triplicate points.
# Data were expressed as the growth inhibition percentage calculated in basis on the equation: %
# inhibition= 100 – [(AO × 100) / AT]. Where AT is the measured absorbance in wells containing
# compounds and AO is the absorbance measured in blank wells (cells with medium and vehicle).
# The inhibitory potency of compounds was calculated by constructing concentration-% growth
# inhibition curves, and extrapolating IC50 values (concentration of compound that inhibits cells
# [2] = Fluorescence titration of cyclopeptides with Cu(II) ions (DynaFit fit); format: binding; conditions: 2 μM cyclopeptide, 1 mM phosphate buffer, 10 mM NaCl, pH 6.5; 1: 1:2 model (cyclopeptide:metal); 2: simplified model with 1:1 and 2:1 species; read-out: global dissociation constant K D
# Excerpt: While the 2,2′-bipyridine ligand is known to be weakly emissive and for all practical purposes considered nonfluorescent, , the 5′-amido-[2,2′-bipyridine]-5-carboxamide unit in the βAlaBpy building block is highly emissive, displaying an intense emission band at c.a. 410 nm with a quantum yield of 0.37. Furthermore, the fluorescence of the βAlaBpy units is quenched upon coordination to a wide range of divalent transition metal ions. We exploited this property to monitor the coordinative properties of cyclopeptides 1 and 2 in the presence of labile Cu(II) ions in aqueous media. Thus, we measured the emission spectra of 2 μM solutions of the cyclopeptides 1 and 2 in 1 mM phosphate buffer and 10 mM NaCl, pH 6.5, upon excitation at 308 nm in the presence of increasing concentrations of Cu(II) ions. […] Therefore, the affinity of the first part of the titrations cannot be determined with this experiment as it is too strong. […]
# 5.2. Fluorescence titration experiments
# Luminescence experiments were made with a Varian Cary Eclipse Fluorescence spectrophotometer coupled to a Cary Single Cell Peltier accessory (Agilent Technologies) temperature controller. […]
# emission spectrum was recorded (λex= 308 nm; λem= 410 nm) after each addition. […]
structure (smiles),measurement,setting,value
"N=C(N)NCCC[C@@H]1NC(=O)c2ccc(nc2)-c2ccc(cn2)NC(=O)CCNC(=O)[C@H](CCCNC(=N)N)NC(=O)[C@H](CCCNC(=N)N)NC(=O)[C@H](CCCNC(=N)N)NC(=O)c2ccc(nc2)-c2ccc(cn2)NC(=O)CCNC(=O)[C@H](CCCNC(=N)N)NC(=O)[C@H](CCCNC(=N)N)NC1=O [compound 1, cyclo-(βAlaBpy-Arg3)2] (cyclo([X1]RRR[βAla][X1]RRR[βAla]))",E max (maximum % cell inhibition),[1],10 ± 2%
same,IC50,[1],> 100000 nM
same,Kd,[2],390 ± 190 nM
